The EC50 is the concentration at which the effect is half-maximal.

This assay addresses T1, WT/R232 STING protein (Homo sapiens, UniProt Q86WV6, H232R).
T1 construct: host or cells: HEK293T
Briefly: Luciferase reporter assay in HEK293T-hSTING-Luciferase cells, WT/R232. The conditions noted are these: 20 hr stimulation, read-out: R232 Activity (EC50 range). It is filed as cell-based. From the text:
• a) Stable STING expressing cells—Stable HEK293T STING-expressing cell lines were generated using plasmids purchased from Invivogen, Calif., USA, that contain STING cDNA cloned into the pUNO-1 vector under hEF1-HTLV promoter and containing the Blasticidin selection cassette. The plasmids hSTING(R232), hSTING(H232), hSTING(HAQ) were directly procured from Invivogen while hSTING (AQ) and hSTING (Q) were derived from hSTING(HAQ) and hSTING (R232) plasmids respectively by using a PCR based site directed mutagenesis method. These vectors were individually transfected into HEK293T cells using Lipofectamine (Invitrogen) and transfected cells were selected under Blasticidin selection. These transfected cells were further subjected to clonal selection using the limiting dilution method to obtain clonally pure populations of HEK cells transfected with each of the above mentioned human STING variants. Only those clones were selected in which ligand independent activation of STING was minimal. • b) Stable Luciferase reporter gene expressing cells—Stable HEK293T Luciferase reporter gene expressing cell lines were generated using pCDNA4 plasmids under an IRF-inducible promoter. This promoter is comprised of five tandem interferon-stimulated response elements (ISRE) fused to an ISG54 minimal promoter. This vector was transfected into HEK293T cells using Lipofectamine (Invitrogen) and transfected cells were selected under Zeocin selection. These transfected cells were further subjected to clonal selection using the limiting dilution method to obtain clonally pure populations of HEK cells transfected the Luciferase reporter construct. Only those clones were selected in which ligand independent induction of luciferase was minimal.
5×10^5 clonally selected HEK293T-hSTING-Luciferase cells were seeded in 384-well plates in growth medium and stimulated with novel compounds. After 20 hr of stimulation supernatant were removed and secretary reporter gene activity were measured using the Quanti-Luc detection system (Invivogen) on a Spectramax i3X luminometer.
All compounds were first tested in a primary screen using WT/R232 STING protein to obtain a ‘fold-induction’ over baseline levels of protein activity.

T1 sequence (Q86WV6 whole entry H232R): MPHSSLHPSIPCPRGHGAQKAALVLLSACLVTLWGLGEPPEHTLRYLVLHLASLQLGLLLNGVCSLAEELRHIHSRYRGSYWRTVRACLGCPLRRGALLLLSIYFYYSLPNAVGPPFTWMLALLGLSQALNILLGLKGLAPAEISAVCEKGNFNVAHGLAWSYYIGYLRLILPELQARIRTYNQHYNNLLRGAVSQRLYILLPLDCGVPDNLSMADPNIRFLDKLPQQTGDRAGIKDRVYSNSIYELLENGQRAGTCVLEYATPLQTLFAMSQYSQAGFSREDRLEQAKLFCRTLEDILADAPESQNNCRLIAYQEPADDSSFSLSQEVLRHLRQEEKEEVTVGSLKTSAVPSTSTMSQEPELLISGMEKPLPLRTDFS

For the compound `CN(C)CC(NC(=O)c1ccc2c(c1)N(Cc1ccccc1)C(=O)CS2)c1ccccc1` (stereo not drawn) [Example 53, 4-benzyl-N-(2-(dimethylamino)-1-phenylethyl)-3-oxo-3,4-dihydro-2H-benzo[b-1,4]thiazine-6-carboxamide], the EC50 was above 10 µM.

Consider `O=C(NCC1CCN(c2ccccc2)CC1)c1ccc2c(c1)N(Cc1ccccc1F)C(=O)CS2` [Example 45, 4-(2-fluorobenzyl)-3-oxo-N-((1-phenyl-piperidin-4-yl)methyl)-3,4-dihydro-2H-benzo[b][1,4] thiazine-6-carboxamide], for which the EC50 was above 10 µM.

Consider `O=C(NCc1cc2cccnc2o1)c1ccc2c(c1)N(Cc1cc(F)cc(F)c1)C(=O)CC2` [Example 274, 1-(3,5-difluorobenzyl)-N-(furo[2,3-b]pyridin-2-ylmethyl)-2-oxo-1,2,3,4-tetrahydroquinoline-7-carboxamide], for which the concentration giving a half-maximal response (EC50) was above 10 µM.

For `Nc1ncc(NC(=O)CN2C(=O)CSc3ccc(C(=O)NCc4ccco4)cc32)cn1` [Example 9, 4-(2-((2-amino-pyrimidin-5-yl)amino)-2-oxoethyl)-N-(furan-2-ylmethyl)-3-oxo-3,4-dihydro-2H-benzo[b-1,4]thiazine-6-carboxamide], the EC50 is above 10 µM.

Turning to `CC1(CO)Sc2ncc(C(=O)NCc3cc4ccccc4o3)cc2N(Cc2cc(F)cc(F)c2)C1=O` (stereo not drawn) [Example 210, N-(benzofuran-2-ylmethyl)-1-(3,5-difluorobenzyl)-3-(hydroxymethyl)-3-methyl-2-oxo-2,3-dihydro-1H-pyrido[2,3-b] [1,4] thiazine-7-carboxamide], the EC50 is above 10 µM.

Turning to `O=C(NCc1cc2ncccc2o1)c1ccc2c(c1)N(Cc1cc(F)cc(F)c1)C(=O)CC2` [Example 275, 1-(3,5-difluorobenzyl)-N-(furo[3,2-b]pyridin-2-ylmethyl)-2-oxo-1,2,3,4-tetrahydroquinoline-7-carboxamide], the EC50 is above 10 µM.

With `O=C(NCc1ccc(F)cc1F)c1cnc2c(c1)N(Cc1ccc(F)cc1)C(=O)CC2` [Example 280, N-(2,4-difluorobenzyl)-5-(4-fluorobenzyl)-6-oxo-5,6,7,8-tetrahydro-1,5-naphthyridine-3-carboxamide], the EC50 was above 10 µM.

For `O=C(NCc1ccco1)c1ccc2c(c1)N(CCS(=O)(=O)c1ccccc1)C(=O)CS2` [Example 103, N-(furan-2-ylmethyl)-3-oxo-4-(2-(phenylsulfonyl)ethyl)-3,4-dihydro-2H-benzo[b-1,4]thiazine-6-carboxamide], the half-maximal effective concentration (EC50) is above 10 µM.

As to `O=C(NCC1CCCCC1)c1ccc2c(c1)N(C(=O)c1c(F)cccc1Cl)CCS2` [Example 257, 4-(2-chloro-6-fluorobenzoyl)-N-(cyclohexylmethyl)-3,4-dihydro-2H-benzo[b][1,4]thiazine-6-carboxamide], the EC50 was 1 to 10 µM.

On to `CC1Sc2ccc(C(=O)NCc3ccco3)cc2N(Cc2ccccc2)C1=O` (stereo not drawn) [Example 134, 4-benzyl-N-(furan-2-ylmethyl)-2-methyl-3-oxo-3,4-dihydro-2H-benzo[b-1,4]thiazine-6-carboxamide], for which the concentration for a half-maximal effect (EC50) lay within 1 to 10 µM.

Turning to `N#CCN(Cc1ccccc1)C(=O)c1ccc2c(c1)N(Cc1ccccc1)C(=O)CS2` [Example 56, N,4-dibenzyl-N-(cyanomethyl)-3-oxo-3,4-dihydro-2H-benzo[b-1,4]thiazine-6-carboxamide], the 50% effective concentration (EC50) is above 10 µM.

On to `O=C(NCc1ccco1)c1cc2c(cc1C1CC1)SCC(=O)N2Cc1ccccc1F` [Example 229, 7-cyclopropyl-4-(2-fluorobenzyl)-N-(furan-2-ylmethyl)-3-oxo-3,4-dihydro-2H-benzo[b-1,4]thiazine-6-carboxamide], for which the concentration giving a half-maximal response (EC50) is above 10 µM.

On to `O=C(NCc1ccco1)c1ccc2c(c1)N(Cc1ccccc1F)C(=O)CS2` [Example 106, 4-(2-fluorobenzyl)-N-(furan-2-ylmethyl)-3-oxo-3,4-dihydro-2H-benzo[b-1,4]thiazine-6-carboxamide], for which the 50% effective concentration (EC50) was above 10 µM.

As for `Cc1cccc(CNC(=O)c2ccc3c(n2)N(Cc2c(F)cccc2Cl)C(=O)C(C)S3)c1` (stereo not drawn) [Example 184, 4-(2-chloro-6-fluorobenzyl)-2-methyl-N-(3-methylbenzyl)-3-oxo-3,4-dihydro-2H-pyrido[3,2-b-1,4]thiazine-6-carboxamide], the concentration giving a half-maximal response (EC50) is above 10 µM.

In the case of `CC1(C)C2CC(CNC(=O)c3ccc4c(c3)N(Cc3ccccc3F)C(=O)CS4)CC1C2` (stereo not drawn) [Example 22, N-((6,6-dimethyl-bicyclo[3.1.1]heptan-3-yl)methyl)-4-(2-fluorobenzyl)-3-oxo-3,4-dihydro-2H-benzo[b-1,4]thiazine 6-carboxamide], the EC50 was above 10 µM.

With `O=C(NCc1coc2ccccc12)c1ccc2c(c1)N(Cc1ccccc1)C(=O)CS2` [Example 70, N-(benzofuran-3-ylmethyl)-4-benzyl-3-oxo-3,4-dihydro-2H-benzo[b-1,4]thiazine-6-carboxamide], the EC50 is above 10 µM.

Turning to `O=C(NCc1ccco1)c1ccc2c(c1)N(Cc1c(F)cccc1Cl)C(=O)CC2` [Example 268, 1-(2-chloro-6-fluorobenzyl)-N-(furan-2-ylmethyl)-2-oxo-1,2,3,4-tetrahydroquinoline-7-carboxamide], the EC50 was above 10 µM.

In the case of `O=C(NCc1ccco1)c1ccc2c(c1)N(Cc1ccc(Cl)cc1)CCS2` [Example 250, 4-(4-Chlorobenzyl)-N-(furan-2-ylmethyl)-3,4-dihydro-2H-benzo[b-1,4]thiazine-6-carboxamide], the 50% effective concentration (EC50) is above 10 µM.

For the compound `O=C(NC(c1ccccc1)c1ccccc1)c1ccc2c(c1)N(Cc1ccccc1F)C(=O)CS2` [Example 42, N-benzhydryl-4-(2-fluorobenzyl)-3-oxo-3,4-dihydro-2H-benzo[b][1,4] thiazine-6-carboxamide], the concentration giving a half-maximal response (EC50) is above 10 µM.

Consider `Cc1ccc(CNC(=O)c2ccc3c(c2)N(Cc2c(F)cccc2Cl)C(=O)CS3)cn1` [Example 36, 4-(2-chloro-6-fluorobenzyl)-N-((6-methyl-pyridin-3-yl)methyl)-3-oxo-3,4-dihydro-2H-benzo[b-1,4]thiazine-6-carboxamide], for which the half-maximal effective concentration (EC50) was above 10 µM.

With `CC1Sc2ncc(C(=O)NCc3cnn(C)c3)cc2N(Cc2cc(F)cc(F)c2)C1=O` (stereo not drawn) [Example 216, 1-(3,5-difluorobenzyl)-3-methyl-N-((1-methyl-1H-pyrazol-4-yl)methyl)-2-oxo-2,3-dihydro-1H-pyrido[2,3-b][1,4] thiazine-7-carboxamide], the EC50 is above 10 µM.

Take `O=C(NCc1ccco1)c1ccc2c(c1)N(Cc1nc3ccccc3o1)C(=O)CS2` [Example 7]: the concentration giving a half-maximal response (EC50) is above 10 µM.

Turning to `NCCC1Sc2ccc(C(=O)NCc3ccc(F)cc3F)cc2N(Cc2cc(F)cc(F)c2)C1=O` (stereo not drawn) [Example 166, 2-(2-aminoethyl)-N-(2,4-difluorobenzyl)-4-(3,5-difluorobenzyl)-3-oxo-3,4-dihydro-2H-benzo[b] [1,4]thiazine-6-carboxamide], the EC50 was above 10 µM.

With `Cn1nccc1CNC(=O)c1ccc2c(c1)N(Cc1ccccc1)C(=O)CS2` [Example 67, 4-benzyl-N-((1-methyl-1H-pyrazol-5-yl)methyl)-3-oxo-3,4-dihydro-2H-benzo[b-1,4]thiazine-6-carboxamide], the 50% effective concentration (EC50) was above 10 µM.

For the compound `COc1ccc(CCNC(=O)c2ccc3c(c2)N(Cc2ccccc2)C(=O)CS3)cc1OC` [Example 171, 4-benzyl-N-(3,4-dimethoxy-phenethyl)-3-oxo-3,4-dihydro-2H-benzo[b][1,4] thiazine-6-carboxamide], the EC50 is above 10 µM.

On to `Cc1cc(C(=O)NCc2ccco2)cc2c1SCC(=O)N2Cc1ccccc1F` [Example 226, 4-(2-Fluorobenzyl)-N-(furan-2-ylmethyl)-8-methyl-3-oxo-3,4-dihydro-2H-benzo[b-1,4]thiazine-6-carboxamide], for which the EC50 was above 10 µM.

As to `CC1(CO)Sc2ncc(C(=O)NCc3c(F)cc(F)cc3F)cc2N(Cc2cc(F)cc(F)c2)C1=O` (stereo not drawn) [Example 211, 1-(3,5-difluorobenzyl)-3-(hydroxymethyl)-3-methyl-2-oxo-N-(2,4,6-trifluorobenzyl)-2,3-dihydro-1H-pyrido [2,3-b] [1,4]thiazine-7-carboxamide], the EC50 is above 10 µM.

Take `O=C(NCc1cc2ccccc2o1)c1cnc2c(c1)N(Cc1cc(F)cc(F)c1)C(=O)CC2` [Example 278, N-(benzofuran-2-ylmethyl)-5-(3,5-difluorobenzyl)-6-oxo-5,6,7,8-tetrahydro-1,5-naphthyridine-3-carboxamide]: the EC50 is above 10 µM.

For `O=C(NCc1ccco1)c1ccc2c(c1)N(C(=O)c1ccccc1)CCS2` [Example 255, 4-benzoyl-N-(furan-2-ylmethyl)-3,4-dihydro-2H-benzo[b][1,4]thiazine-6-carboxamide], the EC50 was above 10 µM.

Take `CN(Cc1ccco1)C(=O)c1ccc2c(c1)N(Cc1ccccc1)C(=O)CS2` [Example 33, 4-benzyl-N-(furan-2-ylmethyl)-N-methyl-3-oxo-3,4-dihydro-2H-benzo[b][1,4] thiazine-6-carboxamide]: the EC50 was above 10 µM.
